Key:
Assay type in all cases: in vivo
[1] = tested on: Abutilon theophrasti; assay: Post-emergence herbicidal efficacy at 320 g/ha, ABUTH; conditions: rated visually after about 3 weeks vs untreated controls, 100% = plants have died
How it was run: (§1)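 Visual % activity vs untreated controls, ~3 wk after spraying; 100% = plants dead, 0% = like control. Greenhouse pot plants in sandy loam, treated at one-leaf stage (2–3 wk post-sowing). WP/EC in water + 0.5% additive, 600 L/ha spray volume.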

[2] = tested on: Alopecurus myosuroides; assay: Post-emergence herbicidal efficacy at 320 g/ha, ALOMY; conditions: rated visually after about 3 weeks vs untreated controls, 100% = plants have died
From the text: (§2) Unwanted plants/weeds: • ABUTH: Abutilon theophrasti • ALOMY: Alopecurus myosuroides • AMARE: Amaranthus retroflexus • DIGSA: Digitaria sanguinalis • ECHCG: Echinochloa crus-galli • KCHSC: Kochia scoparia • LOLRI: Lolium rigidum • MATIN: Matricaria inodora • POAAN: Poa annua • POLCO: Polygonum convolvulus • SETVI: Setaria viridis • STEME: Stellaria media • VERPE: Veronica persica • VIOTR: Viola tricolor A. Post-Emergence Herbicidal Efficacy at 320 g/ha
(§3) Seeds of mono- and dicotyledonous weed plants were placed in plastic pots in sandy loam soil (doubly sown with in each case one species of mono- or dicotyledonous weed plants per pot), covered with soil and cultivated in a greenhouse under controlled growth conditions. 2 to 3 weeks after sowing, the test plants were treated at the one-leaf stage. The compounds of the invention, formulated in the form of wettable powders (WP) or as emulsion concentrates (EC), were applied to the green parts of the plants as aqueous suspension or emulsion with addition of 0.5% additive at a water application rate equivalent to 600 litres per hectare. After the test plants had been kept in the greenhouse under optimum growth conditions for about 3 weeks, the activity of the preparations was rated visually in comparison to untreated controls.
(§4) For example, 100% activity=the plants have died, 0% activity=like control plants.
(§5) Tables A1 to A10 below show the effects of selected compounds of the general formula (I) according to Table 1 on various harmful plants and at an application rate corresponding to 320 g/ha, which were obtained by the trial procedure specified above.

[3] = tested on: Amaranthus retroflexus; assay: Post-emergence herbicidal efficacy at 320 g/ha, AMARE; conditions: rated visually after about 3 weeks vs untreated controls, 100% = plants have died
How it was run: as §1

[4] = tested on: Echinochloa crus-galli; assay: Post-emergence herbicidal efficacy at 320 g/ha, ECHCG; conditions: rated visually after about 3 weeks vs untreated controls, 100% = plants have died
How it was run: as §1

[5] = tested on: Kochia scoparia; assay: Post-emergence herbicidal efficacy at 320 g/ha, KCHSC; conditions: rated visually after about 3 weeks vs untreated controls, 100% = plants have died
How it was run: as §1

[6] = tested on: Setaria viridis; assay: Post-emergence herbicidal efficacy at 320 g/ha, SETVI; conditions: rated visually after about 3 weeks vs untreated controls, 100% = plants have died
From the text: as §2, §3, §4, §5

[7] = tested on: Stellaria media; assay: Post-emergence herbicidal efficacy at 320 g/ha, STEME; conditions: rated visually after about 3 weeks vs untreated controls, 100% = plants have died
How it was run: as §1

[8] = tested on: Veronica persica; assay: Post-emergence herbicidal efficacy at 320 g/ha, VERPE; conditions: rated visually after about 3 weeks vs untreated controls, 100% = plants have died
How it was run: as §1

[9] = tested on: Abutilon theophrasti; assay: Post-emergence herbicidal efficacy at 80 g/ha, ABUTH; conditions: rated visually after about 3 weeks vs untreated controls, 100% = plants have died
From the text: as §2
(§6) Seeds of monocotyledonous and dicotyledonous weeds and crop plants were placed in sandy loam in plastic or organic planting pots, covered with soil and cultivated in a greenhouse under controlled growth conditions. 2 to 3 weeks after sowing, the test plants were treated at the one-leaf stage. The compounds of the invention, formulated in the form of wettable powders (WP) or as emulsion concentrates (EC), were then sprayed onto the green parts of the plants as aqueous suspension or emulsion with addition of 0.5% additive at a water application rate of 600 l/ha (converted). After the test plants had been kept in the greenhouse under optimum growth conditions for about 3 weeks, the activity of the preparations was rated visually in comparison to untreated controls. For example, 100% activity=the plants have died, 0% activity=like control plants.
(§7) Tables B1 to B11 below show the effects of selected compounds of the general formula (I) according to Table 1 on various harmful plants and an application rate corresponding to 80 g/ha, which were obtained by the experimental procedure mentioned above.

[10] = tested on: Alopecurus myosuroides; assay: Post-emergence herbicidal efficacy at 80 g/ha, ALOMY; conditions: rated visually after about 3 weeks vs untreated controls, 100% = plants have died
From the text: as §2, §6, §7

[11] = tested on: Amaranthus retroflexus; assay: Post-emergence herbicidal efficacy at 80 g/ha, AMARE; conditions: rated visually after about 3 weeks vs untreated controls, 100% = plants have died
How it was run: (§8)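 Greenhouse post-emergence spray, one-leaf stage (2–3 wk after sowing, sandy loam). Cpd as WP/EC, aqueous + 0.5% additive, 600 l/ha water. Visual rating ~3 wk post-treatment vs untreated; 0% = as control, 100% = plants dead.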

[12] = tested on: Veronica persica; assay: Post-emergence herbicidal efficacy at 80 g/ha, VERPE; conditions: rated visually after about 3 weeks vs untreated controls, 100% = plants have died
How it was run: as §8

[13] = tested on: Viola tricolor; assay: Post-emergence herbicidal efficacy at 80 g/ha, VIOTR; conditions: rated visually after about 3 weeks vs untreated controls, 100% = plants have died
From the text: as §2, §6, §7

[14] = tested on: Abutilon theophrasti; assay: Pre-emergence herbicide efficacy at 320 g/ha, ABUTH; conditions: scored visually after about 3 weeks vs untreated controls, 100% = plants have died
How it was run: (§9)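 Sandy loam pots, seeds covered with soil; WP/EC formulation applied to soil surface, 0.5% additive, 600 L/ha water. Greenhouse ~3 weeks. Visual % damage vs untreated (0% = like control, 100% = dead).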

[15] = tested on: Alopecurus myosuroides; assay: Pre-emergence herbicide efficacy at 320 g/ha, ALOMY; conditions: scored visually after about 3 weeks vs untreated controls, 100% = plants have died
From the text: as §2
(§10) Seeds of mono- and dicotyledonous weed plants were placed in plastic pots in sandy loam soil (doubly sown with one species each of mono- or dicotyledonous weed plants per pot) and covered with soil. The compounds of the invention, formulated in the form of wettable powders (WP) or as emulsion concentrates (EC), were then applied to the surface of the covering soil as aqueous suspension or emulsion with addition of 0.5% additive at a water application rate of 600 litres per hectare (converted). After the treatment, the pots were placed in a greenhouse and kept under good growth conditions for the test plants. After about 3 weeks, the efficacy of the preparations was scored visually in comparison with untreated controls as percentages.
as §4
(§11) Tables C1 to C12 below show the effects of selected compounds of the general formula (I) according to Table 1 on various harmful plants and at an application rate corresponding to 320 g/ha, which were obtained by the trial procedure specified above.

[16] = tested on: Amaranthus retroflexus; assay: Pre-emergence herbicide efficacy at 320 g/ha, AMARE; conditions: scored visually after about 3 weeks vs untreated controls, 100% = plants have died
How it was run: as §9

[17] = tested on: Digitaria sanguinalis; assay: Pre-emergence herbicide efficacy at 320 g/ha, DIGSA; conditions: scored visually after about 3 weeks vs untreated controls, 100% = plants have died
How it was run: as §9

[18] = tested on: Echinochloa crus-galli; assay: Pre-emergence herbicide efficacy at 320 g/ha, ECHCG; conditions: scored visually after about 3 weeks vs untreated controls, 100% = plants have died
From the text: as §2, §10, §4, §11

[19] = tested on: Kochia scoparia; assay: Pre-emergence herbicide efficacy at 320 g/ha, KCHSC; conditions: scored visually after about 3 weeks vs untreated controls, 100% = plants have died
How it was run: as §9

[20] = tested on: Poa annua; assay: Pre-emergence herbicide efficacy at 320 g/ha, POAAN; conditions: scored visually after about 3 weeks vs untreated controls, 100% = plants have died
How it was run: as §9

[21] = tested on: Setaria viridis; assay: Pre-emergence herbicide efficacy at 320 g/ha, SETVI; conditions: scored visually after about 3 weeks vs untreated controls, 100% = plants have died
How it was run: as §9

[22] = tested on: Stellaria media; assay: Pre-emergence herbicide efficacy at 320 g/ha, STEME; conditions: scored visually after about 3 weeks vs untreated controls, 100% = plants have died
How it was run: as §9

[23] = tested on: Veronica persica; assay: Pre-emergence herbicide efficacy at 320 g/ha, VERPE; conditions: scored visually after about 3 weeks vs untreated controls, 100% = plants have died
How it was run: as §9

[24] = tested on: Amaranthus retroflexus; assay: Pre-emergence herbicide efficacy at 80 g/ha, AMARE; conditions: scored visually after about 3 weeks vs untreated controls, 100% = plants have died
From the text: as §2
(§12) Seeds of monocotyledonous and dicotyledonous weed plants and crop plants were placed in plastic or organic planting pots and covered with soil. The compounds of the invention, formulated in the form of wettable powders (WP) or as emulsion concentrates (EC), were then applied to the surface of the covering soil as aqueous suspension or emulsion with addition of 0.5% additive at a water application rate equivalent to 600 l/ha. After the treatment, the pots were placed in a greenhouse and kept under good growth conditions for the test plants. After about 3 weeks, the efficacy of the preparations was scored visually in comparison with untreated controls as percentages. For example, 100% activity=the plants have died, 0% activity=like control plants.
(§13) Tables D1 to D12 below show the effects of selected compounds of the general formula (I) according to Table 1 on various harmful plants and an application rate corresponding to 80 g/ha, which were obtained by the experimental procedure mentioned above.

[25] = tested on: Digitaria sanguinalis; assay: Pre-emergence herbicide efficacy at 80 g/ha, DIGSA; conditions: scored visually after about 3 weeks vs untreated controls, 100% = plants have died
From the text: as §2, §12, §13

[26] = tested on: Polygonum convolvulus; assay: Pre-emergence herbicide efficacy at 80 g/ha, POLCO; conditions: scored visually after about 3 weeks vs untreated controls, 100% = plants have died
From the text: as §2, §12, §13

[27] = tested on: Setaria viridis; assay: Pre-emergence herbicide efficacy at 80 g/ha, SETVI
From the text: as §2, §12, §13

[28] = tested on: Viola tricolor; assay: Pre-emergence herbicide efficacy at 80 g/ha, VIOTR
From the text: as §2, §12, §13

Cc1cnc(Nc2cccc(F)c2-c2cc(C(F)F)no2)nc1 [Example 1-36]
Post-emergence efficacy at 320 g/ha against ABUTH in % [1]: 100%
Post-emergence efficacy at 320 g/ha against ALOMY in % [2]: 100%
Post-emergence efficacy at 320 g/ha against AMARE in % [3]: 100%
Post-emergence efficacy at 320 g/ha against ECHCG in % [4]: 100%
Post-emergence efficacy at 320 g/ha against KCHSC in % [5]: 100%
Post-emergence efficacy at 320 g/ha against SETVI in % [6]: 100%
Post-emergence efficacy at 320 g/ha against STEME in % [7]: 100%
Post-emergence efficacy at 320 g/ha against VERPE in % [8]: 100%
Post-emergence efficacy at 80 g/ha against ABUTH in % [9]: 100%
Post-emergence efficacy at 80 g/ha against ALOMY in % [10]: 80%
Post-emergence efficacy at 80 g/ha against AMARE in % [11]: 90%
Post-emergence efficacy at 80 g/ha against VERPE in % [12]: 80%
Post-emergence efficacy at 80 g/ha against VIOTR in % [13]: 100%
Pre-emergence efficacy at 320 g/ha against ABUTH in % [14]: 100%
Pre-emergence efficacy at 320 g/ha against ALOMY in % [15]: 100%
Pre-emergence efficacy at 320 g/ha against AMARE in % [16]: 100%
Pre-emergence efficacy at 320 g/ha against DIGSA in % [17]: 100%
Pre-emergence efficacy at 320 g/ha against ECHCG in % [18]: 100%
Pre-emergence efficacy at 320 g/ha against KCHSC in % [19]: 100%
Pre-emergence efficacy at 320 g/ha against POAAN in % [20]: 100%
Pre-emergence efficacy at 320 g/ha against SETVI in % [21]: 100%
Pre-emergence efficacy at 320 g/ha against STEME in % [22]: 100%
Pre-emergence efficacy at 320 g/ha against VERPE in % [23]: 100%
Pre-emergence efficacy at 80 g/ha against AMARE in % [24]: 90%
Pre-emergence efficacy at 80 g/ha against DIGSA in % [25]: 90%
Pre-emergence efficacy at 80 g/ha against POLCO in % [26]: 90%
Pre-emergence efficacy against SETVI [27]: 90%
Pre-emergence efficacy against VIOTR [28]: 80%
